Test results: US20170209472A1, “PREVENTION OR TREATMENT OF FOOD ALLERGY IN INFANTS AND TODDLERS” (N.V. Nutricia, priority 2014, published 2017)

How the values were obtained:
[1] = test system: whey protein allergy response; conditions: C3H/HeOuJ mice sensitized with low or high dose DON with or without whey; FIG. 2
[2] = test system: IL-33; assay: systemic IL-33 measured by ELISA in mice serum; type: in vivo; conditions: DON gavage; data not shown
[3] = test system: Caco-2 cells; assay: IL-33 in DON-stimulated Caco-2 cells; type: cell-based; conditions: data not shown
[4] = test system: IL-33; conditions: distal small intestine after DON gavage, vs control mice
[5] = water and polar solvents such as methanol and acetonitrile; cited from earlier work
[6] = test system: IL-33 mRNA; conditions: distal small intestine, 6 h after oral DON gavage 25 mg/kg, vs control mice

**Q.** Which “whey protein allergy response (ear swelling)” value [1] does the source give for `CC1=C[C@H]2O[C@@H]3[C@H](O)C[C@](C)([C@@]2(CO)[C@H](O)C1=O)[C@]31CO1` [DON, (3α, 7α)-3,7,15-trihydroxy-12,13-epoxytrichothec-9-en-8-one] here?
**A.** The value was “significantly increases”.

**Q.** What about the “systemic IL-33 in serum” value [2] of the same molecule?
**A.** The value was “neither affected”.

**Q.** What about the “IL-33 levels in the supernatant” value [3] of the same molecule?
**A.** The value was “did not induce increased”.

**Q.** What about the “IL-33 mRNA expression levels” value [3] of the same molecule?
**A.** The value was “did not induce increased”.

**Q.** And the “IL-33 production (immunohistochemistry)” value [4]?
**A.** Its value is “obviously increased”.

**Q.** What about the solubility [5] of the same molecule?
**A.** Its solubility is “soluble”.

**Q.** And the “IL-33 mRNA expression” value [6]?
**A.** The value was “increase”.
